According to patent publication US20050197350A1, “Novel quinoline, tetrahydroquinazoline, and pyrimidine derivatives and methods of treatment related to the use thereof” (TAISHO PHARMACEUTICAL CO., LTD., priority 2003, published 2005):

System: MCH receptors
Assay: MCH receptor activity class (method not given)
Conditions: class 1-3 by percent of control at 10^-7 M or IC50

Structure (SMILES)	class
CN(C)c1ccnc(N[C@H]2CC[C@@H](CNC(=O)c3c(F)cccc3Cl)CC2)n1 [compound 450]	3 (Class 3 The value of percent of control at 10^−7 M was more than 60% or the value of IC50 was more than 200 nM.)
CN(C)c1ccnc(N[C@H]2CC[C@@H](CNC(=O)c3c(Cl)cc(Cl)cc3Cl)CC2)n1 [compound 451]	2 (Class 2: The value of percent of control at 10^−7 M was from 40% to 60% or the value of IC′50 was from 50 nM to 200 nM.)
CN(C)c1ccnc(N[C@H]2CC[C@@H](CNC(=O)/C=C/c3ccccc3Cl)CC2)n1 [compound 452]	2 (Class 2: The value of percent of control at 10^−7 M was from 40% to 60% or the value of IC′50 was from 50 nM to 200 nM.)
Cc1ccc(Cl)c(C(=O)NC[C@H]2CC[C@@H](Nc3nccc(N(C)C)n3)CC2)c1F [compound 453]	3 (Class 3 The value of percent of control at 10^−7 M was more than 60% or the value of IC50 was more than 200 nM.)
CN(C)c1ccnc(N[C@H]2CC[C@@H](CNC(=O)c3c(F)ccc(F)c3Cl)CC2)n1 [compound 454]	3 (Class 3 The value of percent of control at 10^−7 M was more than 60% or the value of IC50 was more than 200 nM.)
Cc1cccc(C(=O)NC[C@H]2CC[C@@H](Nc3nccc(N(C)C)n3)CC2)c1C [compound 455]	3 (Class 3 The value of percent of control at 10^−7 M was more than 60% or the value of IC50 was more than 200 nM.)
COc1cccc(C(=O)N[C@H]2CC[C@@H](Nc3nc4c(c(N(C)C)n3)CCCC4)CC2)c1 [compound 456]	1 (Class 1: The value of percent of control at 10^−7 M was less than 40% or the value of IC50 was less than 50 nM.)
CN(C)c1nc(N[C@H]2CC[C@@H](NC(=O)c3cccc(Br)c3)CC2)nc2c1CCCC2 [compound 457]	1 (Class 1: The value of percent of control at 10^−7 M was less than 40% or the value of IC50 was less than 50 nM.)
CN(C)c1nc(N[C@H]2CC[C@@H](NC(=O)c3ccc(Br)cc3)CC2)nc2c1CCCC2 [compound 458]	2 (Class 2: The value of percent of control at 10^−7 M was from 40% to 60% or the value of IC′50 was from 50 nM to 200 nM.)
CN(C)c1nc(N[C@H]2CC[C@@H](NC(=O)c3ccc4nonc4c3)CC2)nc2c1CCCC2 [compound 459]	1 (Class 1: The value of percent of control at 10^−7 M was less than 40% or the value of IC50 was less than 50 nM.)
CN(C)c1nc(N[C@H]2CC[C@@H](NC(=O)c3cccc(Cl)c3)CC2)nc2c1CCCC2 [compound 460]	1 (Class 1: The value of percent of control at 10^−7 M was less than 40% or the value of IC50 was less than 50 nM.)
CN(C)c1nc(N[C@H]2CC[C@@H](NC(=O)c3ccc(Cl)cc3)CC2)nc2c1CCCC2 [compound 461]	1 (Class 1: The value of percent of control at 10^−7 M was less than 40% or the value of IC50 was less than 50 nM.)
CN(C)c1nc(N[C@H]2CC[C@@H](NC(=O)/C=C/c3ccccc3)CC2)nc2c1CCCC2 [compound 462]	3 (Class 3 The value of percent of control at 10^−7 M was more than 60% or the value of IC50 was more than 200 nM.)
CN(C)c1nc(N[C@H]2CC[C@@H](NC(=O)c3ccc(Cl)c([N+](=O)[O-])c3)CC2)nc2c1CCCC2 [compound 463]	1 (Class 1: The value of percent of control at 10^−7 M was less than 40% or the value of IC50 was less than 50 nM.)
CN(C)c1nc(N[C@H]2CC[C@@H](NC(=O)Cc3ccc(Cl)cc3)CC2)nc2c1CCCC2 [compound 464, 2-(4-chlorophenyl)-N-(cis-4-{[4-(dimethylamino)-5,6,7,8-tetrahydroquinazolin-2-yl]amino}cyclohexyl)acetainide]	1 (Class 1: The value of percent of control at 10^−7 M was less than 40% or the value of IC50 was less than 50 nM.)
CN(C)c1nc(N[C@H]2CC[C@@H](NC(=O)c3cccc(C#N)c3)CC2)nc2c1CCCC2 [compound 465]	1 (Class 1: The value of percent of control at 10^−7 M was less than 40% or the value of IC50 was less than 50 nM.)
CN(C)c1nc(N[C@H]2CC[C@@H](NC(=O)c3cc(Cl)cc(Cl)c3)CC2)nc2c1CCCC2 [compound 466, 3,5-dichloro-N-(cis-4-{[4-(dimethylamino)-5,6,7,8-tetrahydroquinazolin-2-yl]amino}cyclohexyl)benzamide]	1 (Class 1: The value of percent of control at 10^−7 M was less than 40% or the value of IC50 was less than 50 nM.)
CN(C)c1nc(N[C@H]2CC[C@@H](NC(=O)c3ccc(Cl)c(Cl)c3)CC2)nc2c1CCCC2 [compound 467, 3,4-dichloro-N-(cis-4-{[4-(dimethylamino)-5,6,7,8-tetrahydroquinazolin-2-yl]amino}cyclohexyl)benzamide]	1 (Class 1: The value of percent of control at 10^−7 M was less than 40% or the value of IC50 was less than 50 nM.)
CN(C)c1nc(N[C@H]2CC[C@@H](NC(=O)C(c3ccccc3)c3ccccc3)CC2)nc2c1CCCC2 [compound 468]	1 (Class 1: The value of percent of control at 10^−7 M was less than 40% or the value of IC50 was less than 50 nM.)
CN(C)c1nc(N[C@H]2CC[C@@H](NC(=O)c3ccc(F)c(F)c3)CC2)nc2c1CCCC2 [compound 469]	1 (Class 1: The value of percent of control at 10^−7 M was less than 40% or the value of IC50 was less than 50 nM.)

Structure (SMILES)	class
CN(C)c1nc(N[C@H]2CC[C@@H](NC(=O)c3cc(F)cc(F)c3)CC2)nc2c1CCCC2 [compound 470]	1 (Class 1: The value of percent of control at 10^−7 M was less than 40% or the value of IC50 was less than 50 nM.)
COc1ccc(OC)c(CC(=O)N[C@H]2CC[C@@H](Nc3nc4c(c(N(C)C)n3)CCCC4)CC2)c1 [compound 471]	3 (Class 3 The value of percent of control at 10^−7 M was more than 60% or the value of IC50 was more than 200 nM.)
CCSc1ncccc1C(=O)N[C@H]1CC[C@@H](Nc2nc3c(c(N(C)C)n2)CCCC3)CC1 [compound 472]	3 (Class 3 The value of percent of control at 10^−7 M was more than 60% or the value of IC50 was more than 200 nM.)
CN(C)c1nc(N[C@H]2CC[C@@H](NC(=O)c3ccc(F)cc3)CC2)nc2c1CCCC2 [compound 473]	1 (Class 1: The value of percent of control at 10^−7 M was less than 40% or the value of IC50 was less than 50 nM.)
CN(C)c1nc(N[C@H]2CC[C@@H](NC(=O)c3cc(F)cc(C(F)(F)F)c3)CC2)nc2c1CCCC2 [compound 474]	1 (Class 1: The value of percent of control at 10^−7 M was less than 40% or the value of IC50 was less than 50 nM.)
CN(C)c1nc(N[C@H]2CC[C@@H](NC(=O)c3cc(F)c(Cl)cc3Cl)CC2)nc2c1CCCC2 [compound 475]	3 (Class 3 The value of percent of control at 10^−7 M was more than 60% or the value of IC50 was more than 200 nM.)
CCCCCC(=O)N[C@H]1CC[C@@H](Nc2nc3c(c(N(C)C)n2)CCCC3)CC1 [compound 476]	2 (Class 2: The value of percent of control at 10^−7 M was from 40% to 60% or the value of IC′50 was from 50 nM to 200 nM.)
CN(C)c1nc(N[C@H]2CC[C@@H](NC(=O)c3ccc(I)cc3)CC2)nc2c1CCCC2 [compound 477]	3 (Class 3 The value of percent of control at 10^−7 M was more than 60% or the value of IC50 was more than 200 nM.)
CSc1ncccc1C(=O)N[C@H]1CC[C@@H](Nc2nc3c(c(N(C)C)n2)CCCC3)CC1 [compound 478]	3 (Class 3 The value of percent of control at 10^−7 M was more than 60% or the value of IC50 was more than 200 nM.)
Cc1ccc(C(=O)N[C@H]2CC[C@@H](Nc3nc4c(c(N(C)C)n3)CCCC4)CC2)cc1[N+](=O)[O-] [compound 479]	1 (Class 1: The value of percent of control at 10^−7 M was less than 40% or the value of IC50 was less than 50 nM.)
CN(C)c1nc(N[C@H]2CC[C@@H](NC(=O)c3cccc([N+](=O)[O-])c3)CC2)nc2c1CCCC2 [compound 480]	1 (Class 1: The value of percent of control at 10^−7 M was less than 40% or the value of IC50 was less than 50 nM.)
CN(C)c1nc(N[C@H]2CC[C@@H](NC(=O)Cc3ccccc3)CC2)nc2c1CCCC2 [compound 481]	3 (Class 3 The value of percent of control at 10^−7 M was more than 60% or the value of IC50 was more than 200 nM.)
CN(C)c1nc(N[C@H]2CC[C@@H](NC(=O)C3C[C@H]3c3ccccc3)CC2)nc2c1CCCC2 (stereo partly drawn) [compound 482, (2R)-N-(cis-4-{[4-(dimethylamino)-5,6,7,8-tetrahydroquinazolin-2-yl]amino}cyclohexyl)-2-phenylcyclopropanecarboxamide]	2 (Class 2: The value of percent of control at 10^−7 M was from 40% to 60% or the value of IC′50 was from 50 nM to 200 nM.)
CN(C)c1nc(N[C@H]2CC[C@@H](NC(=O)c3ccc4c(c3)OCO4)CC2)nc2c1CCCC2 [compound 483]	3 (Class 3 The value of percent of control at 10^−7 M was more than 60% or the value of IC50 was more than 200 nM.)
Cc1cccc(C(=O)N[C@H]2CC[C@@H](Nc3nc4c(c(N(C)C)n3)CCCC4)CC2)c1 [compound 486]	1 (Class 1: The value of percent of control at 10^−7 M was less than 40% or the value of IC50 was less than 50 nM.)
Cc1ccc(C(=O)N[C@H]2CC[C@@H](Nc3nc4c(c(N(C)C)n3)CCCC4)CC2)cc1 [compound 487]	2 (Class 2: The value of percent of control at 10^−7 M was from 40% to 60% or the value of IC′50 was from 50 nM to 200 nM.)
CN(C)c1nc(N[C@H]2CC[C@@H](NC(=O)c3cccs3)CC2)nc2c1CCCC2 [compound 488, N-(cis-4-{[4-(dimethylamino)-5,6,7,8-tetrahydroquinazolin-2-yl]amino}cyclohexyl)thiophene-2-carboxamide]	3 (Class 3 The value of percent of control at 10^−7 M was more than 60% or the value of IC50 was more than 200 nM.)
CN(C)c1nc(N[C@H]2CC[C@@H](NC(=O)Cc3cccs3)CC2)nc2c1CCCC2 [compound 489]	3 (Class 3 The value of percent of control at 10^−7 M was more than 60% or the value of IC50 was more than 200 nM.)
CN(C)c1nc(N[C@H]2CC[C@@H](NC(=O)c3cccc(OC(F)(F)F)c3)CC2)nc2c1CCCC2 [compound 490]	2 (Class 2: The value of percent of control at 10^−7 M was from 40% to 60% or the value of IC′50 was from 50 nM to 200 nM.)
CN(C)c1nc(NC2CCC(NC(=O)OCc3ccccc3)CC2)nc2c1CCCC2 (stereo not shown) [compound 491]	3 (Class 3 The value of percent of control at 10^−7 M was more than 60% or the value of IC50 was more than 200 nM.)
